{"source": "patent US20240189307A1", "about": "“METHODS OF STABILIZING THE NEURONAL PROTEOME AGAINST COLLAPSE AND PROTECTING VASCULAR CELLS” (ALBERT EINSTEIN COLLEGE OF MEDICINE, priority 2021, published 2024)", "tested_on": "Tg mice (APPSwe; PS2N141I; TauP301L)", "assay": "Triple transgenic (Tg, TauPS2APP) mouse model of Alzheimer's disease-related proteotoxicity, oral daily CA", "format": "in vivo", "description": "FIG. 12. Chemical activation of CMA improves behavior and neuropathology in a mouse model of Alzheimer's disease-related proteotoxicity. (A) Schematic of regimen of CMA activator (CA) administration to TauPS2APP (Tg) mice. (B-D) Performance of Tg mice administered vehicle (Veh) or CMA activator (CA) in the novel object recognition test (B, left plot: % of time dedicated to the novel object; right plot: discrimination index), the elevated plus maze (C) and the forced swim test (D). (E) Clasping score in Tg mice +/− CA: time course of clasping score increase (left) and mean linear regression coefficient (right). (F) Performance of Tg mice +/− CA in horizontal grid test. (G-O) Immunostaining of immature amyloid plaques (MOAB2), mature amyloid depositions (6E10), β-sheet marker (Thioflavin S) and Threonine231-phosphorylated tau (pThr231 tau) in the dorsal hippocampus of Tg mice +/− CA. Montages of individual images from the scanning of whole brain slices are shown. Inset: Higher magnification of pThr231 tau staining. Scale bar: 200 μm. Quantification of images of montages of individual images from the scanning of whole brain slices of percentage of area positive and plaque size for MOAB2 (G, J), 6E10 (H, K) or Thioflavin S (I, L). Relationship between number of plaques and average plaque size for different markers of plaque maturity (ThS>6E10>MOAB2) […]. Quantification of percentage of area positive for pThr231 tau (N) and of the overlap between pThr231 tau staining and 6E10 staining (O). All quantifications (except clasping—E) were done at 12 months, in 4-6 mice per group. Data are mean±s.e.m. Comparisons were made using unpaired t-test (B-D, F, G-O), Two-way ANOVA test followed by Sidak's post-hoc analysis (E). *p<0.05, **p<0.005, ***p<0.0005.\nFIG. 13. Effect of chemical activation of CMA in a mouse model of Alzheimer's disease-related proteotoxicity. (A-D) Quantification of size of plaques positive for MOAB2 (t7=3.181, p=0.0155) (A), 6E10 (B) or Thioflavin S (ThS) (C) and of T231-phosphorylated tau pathology (t8=2.382, p=0.0444) (D) in brain cortex from Tg mice administered Veh or CA for 4 months. (E) Summary heatmap highlighting the extent of pathology reduction upon CMA activation in cortex and dorsal hippocampus. * highlights significant difference between Veh and CA administered Tg mice. (F) Immunoblot for S202/T205-phosphorylated (AT8) tau in the brain of Tg mice treated with Veh or CA. Representative immunoblot (left) and densitometric quantification (t8=2.425, p=0.0415) (right). Values were normalized to ponceau and are expressed as folds of Veh treated mice. (G) Number of GFAP-positive astrocytes per area unit (t8=4.058, p=0.0036). (H-I) Representative images of immunostaining of inflammation (microglial marker: Iba1—Green), amyloid pathology (MOAB2—Magenta) and nuclear staining with DAPI (blue) in the dorsal hippocampus of Tg mice administered Veh or CA. Montages of individual images of the dorsal hippocampus from the scanning of whole brain slices are shown. Quantification of number of Iba1-positive microglial cells per area unit (t8=2.041, p=0.0755) (left) and mean cell size (t8=2.079, p=0.0713) (right) (H) and colocalization coefficient between microglia (Iba1) and amyloid plaques (MOAB2) (I) (Mann Whitney U=6, p=0.2571). Mean±s.e.m. and individual values are shown. Comparisons were made using unpaired t-test analysis. *: p<0.05, **: p<0.005.\nMale wild-type mice (C57BL/6J) or transgenic for CaMKIIα-Cre (B6.Cg-Tg(Camk2α-cre)T29-1Stl/J, Jackson Laboratory), LAMP-2A^flox/flox (Schneider et al., 2014), Tau^P301L (line pR5), Tg (APP^Swe; PS2^N141I; Tau^P301L), PS19 (Tau^P301S) (Yoshiyama et al., 2007) and Atg7^f/f were used in the study. Conditional LAMP-2A deletion was generated by breeding LAMP-2A^flox/flox with the transgenic Cre mice of interest. […]", "key": {"[1]": {"conditions": "dorsal hippocampus, 30 mg/kg oral daily, 4 months"}, "[2]": {"conditions": "hippocampus and cortex, 30 mg/kg oral daily, 4 months"}}}
{"compound": "CC(=O)Nc1ccc(-c2cnc3cc(Cl)ccc3n2)cc1", "note": "[CA77.1]", "values": [{"measurement": "visual memory (novel object recognition test)", "setting": "30 mg/kg oral daily for 4 months from 8 months of age", "value": "better visual memory"}, {"measurement": "anxiety- and depression-like behaviors (elevated plus maze, forced swim test)", "setting": "30 mg/kg oral daily, 4 months", "value": "decreased anxiety- and depression-like behaviors"}, {"measurement": "clasping progression", "setting": "30 mg/kg oral daily, 4 months", "value": "slower clasping progression"}, {"measurement": "number of amyloid deposits", "setting": "30 mg/kg oral daily, 4 months", "value": "lower number of deposits depending on the deposit maturity"}, {"measurement": "performance in horizontal grid test", "setting": "30 mg/kg oral daily, 4 months", "value": "increased performance in horizontal grid test"}, {"measurement": "S202/T205-phosphorylated (AT8) tau by immunoblot", "setting": "brain, 30 mg/kg oral daily, 4 months", "value": "significant reduction of the mature phosphosite AT8"}, {"measurement": "association of glial cells with amyloid plaque-like deposit", "setting": "[1]", "value": "less association of glial cells with amyloid plaque-like deposit"}, {"measurement": "number of microglia and astrocytes", "setting": "[1]", "value": "lower number of microglia and astrocytes in the dorsal hippocampus"}, {"measurement": "T231 phosphorylated Tau levels", "setting": "[2]", "value": "reduced levels of the early T231 phosphorylated Tau"}, {"measurement": "area and size of amyloid plaques (MOAB2, 6E10, thioflavin S)", "setting": "[2]", "value": "reduced area and size of immature (MOAB2-positive) and mature (6E10 and thioflavin S-positive) amyloid plaques"}]}
